In brackets after ≈: the same amount, converted by molar mass. Like-named read-outs stand apart in the source and are kept apart here. Starred links: 1 amine or outer side, 2 acyl side, 3 side chain; linkers in the order of their positions; H or OH if unused. Positions of bridges follow the written chain, without caps; N, C: chain ends. Non-standard residues stand in square brackets, D forms with d. Residues, ends and D or L forms follow the SMILES beside them. *: point of attachment. X3 = CN(CCCCC(=O)N[C@@H](CS[*:2])C(=O)[*:1])[*:3]; Trp(7-Me) = Cc1cccc2c(C[C@H](N)C(=O)O)c[nH]c12; X1 = O=C(CCCCN[*:3])N[C@@H](CS[*:2])C(=O)[*:1]; αMeLys(Me2) = CN(C)CCCC[C@](C)(N)C(=O)O; X2 = CN(C)[C@@H](CCCCN[*:1])C(=O)[*:2]; 2Nal = N[C@@H](Cc1ccc2ccccc2c1)C(=O)O; AEF = NCCOc1ccc(C[C@H](N)C(=O)O)cc1; 3Pal = N[C@@H](Cc1cccnc1)C(=O)O; αMeL = CC(C)C[C@](C)(N)C(=O)O; Thp = NC1(C(=O)O)CCOCC1; Me2NCH2CH2 = CN(C)CC*; Aib = CC(C)(N)C(=O)O; Ava = NCCCCC(=O)O; βAla = NCCC(=O)O; Sar = CNCC(=O)O
How the values were obtained:
[1] = target: T1, human interleukin-23 receptor (recombinant human IL-23R-Fc chimera) (Homo sapiens, UniProt Q5VWK5); assay: Human ELISA IL23/IL23R (assay for specific human IL23R antagonists); format: binding; settings: Table 10; read-out: Human ELISA IL23/IL23R IC50
T1 construct: Fc (IgG Fc fusion)
Procedure, shortened: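 Plates coated overnight at 4 °C with human IL23 ([…]), blocked, then serially diluted peptides added with recombinant human IL-23R-Fc (0.1 μg/ml final) for 60 min at room temperature. Bound receptor detected with anti-human IgG1-HRP and fluorogenic peroxidase substrate.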

[2] = tested on: IL-23 induced STAT3 signaling in HEK-Blue™ IL-23 cells; assay: IL-23 induced STAT3 signaling in HEK-Blue IL-23 cells (SEAP reporter); format: cell-based; settings: human IL23 0.25 ng/ml, read-out: pSTAT3
Procedure, shortened: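 HEK-Blue IL-23 cells (10,000/well) pre-incubated 60 min at 37 °C with serially diluted peptides, then stimulated overnight with human IL-23 (0.25 ng/ml final). STAT3-driven SEAP in supernatant detected with QUANTI-Blue after 45 min at RT (OD 620-655 nm); dose-response curves fitted.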

[3] = Solubility testing of peptides at different pH; format: physicochemical; settings: target concentration 1 mg/ml, 2 hours agitation
Procedure, shortened: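 Solid obtained by drying down DMSO stock was taken up at 1 mg/mL in 50 mM HCl pH 1.2 or 50 mM phosphate pH 6.5, 7.4 or 9.0, agitated gently for 2 h, then filtered (0.45 μm). Solubility by UPLC-UV peak area against a DMSO reference standard curve, corrected for extinction coefficients.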

[4] = Chemical stability assessment of peptides (relative purity loss); format: physicochemical; settings: 24 hours at 37° C.; for Chemical stability (relative purity loss) Buffer pH 1.2: 50 mM HCl pH 1.2 + acetonitrile (1:1); for Chemical stability (relative purity loss) Buffer pH 6.5: 50 mM phosphate buffer pH 6.5 + acetonitrile (1:1); for Chemical stability (relative purity loss) Buffer pH 7.4: 50 mM phosphate buffer pH 7.4 + acetonitrile (1:1)
Procedure, shortened: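 Peptide solutions at 1 mg/ml (purity-corrected) in 1:1 acetonitrile with 50 mM HCl pH 1.2, or 50 mM phosphate pH 6.5 or pH 7.4, held 24 hours at 2° C. and 37° C. Supernatants analysed by UHPLC-UV; relative purity loss taken as percent drop in peak-area purity from 0 to 24 hours at 37° C.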

Pepsin = tested on: T2, Pepsin; assay: Protease stability in simulated gastric fluid (Pepsin-SGF, FaSSGF); format: in vitro ADME; settings: simulated gastric fluid with pepsin (Pepsin-SGF), 60 min, 1 μM peptide, 37° C., read-out: FaSSGF 60 (min), remaining percent of peptide
T2 construct: purchased Merck Millipore
Procedure, shortened: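 Peptides at 1 μM final in pepsin-containing SGF at 37° C, sampled at 0, 60, 120 and 240 min, quenched with ethanol (0.1% HCOOH). Analysed by LCMS/MS; percent remaining from peak area relative to time 0 (set to 100%).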

[5] = 50 mM HCl buffer, 50 mM HCl pH 1.2, read-out: Solubility Buffer pH 1.2
[6] = 50 mM phosphate buffer pH 6.5, read-out: Solubility Buffer pH 6.5
[7] = 50 mM phosphate buffer pH 7.4, read-out: Solubility Buffer pH 7.4
[8] = 50 mM phosphate buffer pH 9.0, read-out: Solubility Buffer pH 9.0

Compound | IC50 [1] | IC50 [2] | solubility at 2 h [3, 5] | solubility at 2 h [3, 6] | solubility at 2 h [3, 7] | solubility at 2 h [3, 8] | Chemical stability (relative purity loss) Buffer pH 1.2 [4] | Chemical stability (relative purity loss) Buffer pH 6.5 [4] | Chemical stability (relative purity loss) Buffer pH 7.4 [4] | remaining at 1 h, 1 µM (Pepsin)
CC(=O)N[C@H]1CCCCNC(=O)[C@@H]2CSSC[C@H](NC(=O)[C@H](CCC(N)=O)NC(=O)[C@H](Cc3c[nH]c4ccccc34)NC1=O)C(=O)N[C@@H](Cc1ccc(OCCN)cc1)C(=O)N[C@@H](Cc1ccc3ccccc3c1)C(=O)NC1(CCOCC1)C(=O)N[C@H](C(=O)N[C@@H](C)C(=O)N[C@H](CC(C)C)C(N)=O)CCC(=O)N(C)CCCCC(=O)N2 [compound 34] (Ac-KWQC[AEF][2Nal][Thp]EA[dL]-NH2; linker 1-4-8 via X3) | 0.57 nM | 13.3 nM | ≥ 970 µg/mL | ≥ 910 µg/mL | 270 µg/mL (≈ 164 µM) | 140 µg/mL (≈ 85.1 µM) | 7.9% | 0.0% | 0.3% | 84%
CC(C)C[C@]1(C)NC(=O)[C@H](Cc2ccc3ccccc3c2)NC(=O)[C@H](Cc2ccc(OCCN(C)C)cc2)NC(=O)[C@@H]2CSSC[C@H](NC(=O)CCCCNC(=O)CC[C@@H](C(=O)N[C@@H](CC(N)=O)C(=O)N[C@@H](CC(N)=O)C(N)=O)NC1=O)C(=O)N[C@@H](CC(N)=O)C(=O)N[C@@H]([C@@H](C)O)C(=O)N[C@@H](Cc1c[nH]c3ccccc13)C(=O)N[C@@H](CCC(N)=O)C(=O)N2 [compound 27] ([Ava]CNTWQCY(Me2NCH2CH2)[2Nal][αMeL]ENN-NH2; disulfide 2-7; lactam N-11) | 0.4 nM | 1.71 nM | ≥ 890 µg/mL | ≥ 870 µg/mL | 810 µg/mL (≈ 463 µM) | 270 µg/mL (≈ 154 µM) | 23.8% | 0.0% | 8.7% | 82%
CC(=O)N[C@H]1CCCCNC(=O)[C@@H]2CSSC[C@H](NC(=O)[C@H](CCC(N)=O)NC(=O)[C@H](Cc3c[nH]c4ccccc34)NC1=O)C(=O)N[C@@H](Cc1ccc(OCCN)cc1)C(=O)N[C@@H](Cc1ccc3ccccc3c1)C(=O)N[C@@](C)(CC(C)C)C(=O)N[C@H](C(=O)N[C@@H](C)C(=O)N[C@H](CC(C)C)C(N)=O)CCC(=O)N(C)CCCCC(=O)N2 [compound 44] (Ac-KWQC[AEF][2Nal][αMeL]EA[dL]-NH2; linker 1-4-8 via X3) | 1.16 nM | 42.5 nM | < 10 µg/mL | < 10 µg/mL | < 10 µg/mL | < 10 µg/mL | 4.1% | 0.1% | 0.2% | 88%
CC(=O)NCCCC[C@@H]1NC(=O)[C@H](Cc2c[nH]c3ccccc23)NC(=O)[C@@H](N(C)C)CCCCNC(=O)[C@@H]2CSSC[C@H](NC1=O)C(=O)N[C@@H](Cc1ccc(OCCN(C)C)cc1)C(=O)N[C@@H](Cc1ccc3ccccc3c1)C(=O)N[C@@](C)(CCCCN(C)C)C(=O)N[C@H](C(=O)N[C@@H](CC(N)=O)C(=O)N[C@@H](Cc1cccnc1)C(=O)N(C)CC(N)=O)CCC(=O)NCCCCC(=O)N2 [compound 36] ([Ava]C[X2]WK(Ac)CY(Me2NCH2CH2)[2Nal][αMeLys(Me2)]EN[3Pal][Sar]-NH2; disulfide 2-6; lactam N-10) | 0.5 nM | 13.9 nM | ≥ 1010 µg/mL | ≥ 1100 µg/mL | ≥ 1080 µg/mL | ≥ 1150 µg/mL | 2.6% | 1.1% | 0.9% | 95%
CC(=O)N[C@H]1CCCCNC(=O)[C@@H]2CSSC[C@H](NC(=O)[C@H](CCC(N)=O)NC(=O)[C@H](Cc3c[nH]c4ccccc34)NC1=O)C(=O)N[C@@H](Cc1ccc(OCCN)cc1)C(=O)N[C@@H](Cc1ccc3ccccc3c1)C(=O)NC(C)(C)C(=O)N[C@H](C(=O)N[C@@H](CC(N)=O)C(=O)NCC(N)=O)CCC(=O)N(C)CCCCC(=O)N2 [compound 15] (Ac-KWQC[AEF][2Nal][Aib]ENG-NH2; linker 1-4-8 via X3) | 0.2 nM | 29.2 nM | ≥ 970 µg/mL | ≥ 960 µg/mL | ≥ 910 µg/mL | 670 µg/mL (≈ 421 µM) | 14.3% | 2.9% | 5.1% | 30%
CC(=O)N[C@H]1CCCCNC(=O)[C@@H]2CSSC[C@H](NC(=O)[C@H](CCC(N)=O)NC(=O)[C@H](Cc3c[nH]c4ccccc34)NC1=O)C(=O)N[C@@H](Cc1ccc(OCCN(C)C)cc1)C(=O)N[C@@H](Cc1ccc3ccccc3c1)C(=O)NC(C)(C)C(=O)N[C@H](C(=O)N[C@@H](C)C(=O)NCC(N)=O)CCC(=O)NCCCCC(=O)N2 [compound 32] (Ac-KWQCY(Me2NCH2CH2)[2Nal][Aib]EAG-NH2; linker 1-4-8 via X1) | 0.48 nM | 20.5 nM | 740 µg/mL (≈ 474 µM) | ≥ 880 µg/mL | ≥ 870 µg/mL | 170 µg/mL (≈ 109 µM) | 10.5% | 0.0% | 1.0% | 78%
CC(=O)NCCCC[C@@H]1NC(=O)[C@H](Cc2c[nH]c3c(C)cccc23)NC(=O)[C@H]([C@@H](C)O)NC(=O)[C@H](CC(N)=O)NC(=O)[C@@H]2CSSC[C@H](NC1=O)C(=O)N[C@@H](Cc1ccc(OCCN(C)C)cc1)C(=O)N[C@@H](Cc1ccc3ccccc3c1)C(=O)NC(C)(C)C(=O)N[C@H](C(=O)N[C@@H](CC(N)=O)C(=O)N[C@@H](Cc1c[nH]cn1)C(=O)NCCC(N)=O)CCC(=O)NCCCCC(=O)N2 [compound 48] ([Ava]CNT[Trp(7-Me)]K(Ac)CY(Me2NCH2CH2)[2Nal][Aib]ENH[βAla]-NH2; disulfide 2-7; lactam N-11) | 0.28 nM | 0.6 nM | ≥ 1060 µg/mL | ≥ 1040 µg/mL | ≥ 990 µg/mL | ≥ 1040 µg/mL | 12.5% | 1.3% | 2.8% | 100%
CC(=O)N[C@H]1CCCCNC(=O)[C@@H]2CSSC[C@H](NC(=O)[C@H](CCC(N)=O)NC(=O)[C@H](Cc3c[nH]c4ccccc34)NC1=O)C(=O)N[C@@H](Cc1ccc(OCCN)cc1)C(=O)N[C@@H](Cc1ccc3ccccc3c1)C(=O)NC1(CCOCC1)C(=O)N[C@H](C(=O)N[C@@H](CC(N)=O)C(=O)NCC(N)=O)CCC(=O)N(C)CCCCC(=O)N2 [compound 16] (Ac-KWQC[AEF][2Nal][Thp]ENG-NH2; linker 1-4-8 via X3) | 0.33 nM | 32.1 nM | ≥ 1070 µg/mL | ≥ 950 µg/mL | ≥ 1000 µg/mL | 810 µg/mL (≈ 496 µM) | 13.2% | 1.1% | 4.2% | 62%

Reference: patent US20260258084A1, “New Peptides as Selective IL-23 Receptor Antagonists” (Sanofi, priority 2022, published 2026)
